Reference: ChEMBL document CHEMBL2401646 (Bioorg Med Chem Lett, 2013)

Key:
[1] = molecular target: Hepatocyte growth factor receptor (Homo sapiens, UniProt P08581); assay: Inhibition of cMET in human MKN45 cells assessed as phosphorylated MET levels after 4 hrs; assay type: cell-based, MKN-45
[2] = test system: SNU-5; assay: Antitumor activity against human SNU5 cells xenografted in nu/nu CD1 mouse model assessed as maximum tumor regression at 100 mg/kg, po qd for 20 days
[3] = molecular target: Macrophage-stimulating protein receptor (Homo sapiens, UniProt Q04912); assay: Inhibition of RON (unknown origin) autophosphorylation
[4] = test system: Mus musculus; assay: Toxicity in human U87MG cells xenografted nu/nu CD1 mouse model assessed as body weigh loss at 200 mg/kg, po qd for 14 days; assay type: organism-based, U-87MG ATCC; parameters: dose 200 mg/kg, route oral; conditions: in vivo, 336 h
[5] = Antitumor activity against human U87MG cells xenografted in nu/nu CD1 mouse model assessed as maximum tumor regression at 50 mg/kg, po bid for 14 days; assay type: functional, U-87MG ATCC
[6] = molecular target: T1, ALK tyrosine kinase receptor (Homo sapiens, UniProt Q9UM73); assay: Inhibition of ALK (unknown origin) autophosphorylation
[7] = Antitumor activity against human U87MG cells xenografted in nu/nu CD1 mouse model assessed as tumor growth inhibition at 50 mg/kg, po qd for 14 days; assay type: functional, U-87MG ATCC; conditions: U-87 MG, 336 h, read-out: TGI
[8] = Solubility of the compound at pH 3; assay type: physicochemical; conditions: buffer
[9] = Antitumor activity against human U87MG cells xenografted in nu/nu CD1 mouse model assessed as tumor growth inhibition at 100 mg/kg, po qd for 14 days; assay type: functional, U-87MG ATCC; conditions: U-87 MG, 336 h, read-out: TGI
[10] = test system: Salmonella typhimurium; assay: Mutagenic activity in Salmonella typhimurium TA100 by Ames test in absence of liver S9 fraction; assay type: toxicity, organism-based; conditions: salmonella enterica subsp. enterica serovar typhimurium
[11] = Antitumor activity against human U87MG cells xenografted in nu/nu CD1 mouse model assessed as maximum tumor regression at 50 mg/kg, po qd for 14 days; assay type: functional, U-87MG ATCC
[12] = test system: Mus musculus; assay: Toxicity in human U87MG cells xenografted nu/nu CD1 mouse model assessed as body weigh loss at 50 mg/kg, po bid for 14 days; assay type: organism-based, U-87MG ATCC; parameters: dose 50 mg/kg, route oral; conditions: in vivo, 336 h
[13] = Antitumor activity against human U87MG cells xenografted in nu/nu CD1 mouse model assessed as maximum tumor regression at 100 mg/kg, po qd for 14 days; assay type: functional, U-87MG ATCC
[14] = Volume of distribution at steady state in CD1 mouse at 2 mg/kg, iv; assay type: ADME, organism-based; parameters: dose 2 mg/kg, route intravenous; conditions: in vivo, read-out: Vdss
[15] = test system: Mus musculus; assay: Toxicity in human U87MG cells xenografted nu/nu CD1 mouse model assessed as body weigh loss at 50 mg/kg, po qd for 14 days; assay type: organism-based, U-87MG ATCC; parameters: dose 50 mg/kg, route oral; conditions: in vivo, 336 h
[16] = molecular target: T1, ALK tyrosine kinase receptor; assay: Inhibition of ALK autophosphorylation in human Karpas-299 cells; assay type: cell-based
[17] = Half life in Sprague-Dawley rat at 2 mg/kg, iv; assay type: ADME, organism-based; parameters: dose 2 mg/kg, route intravenous; conditions: in vivo
[18] = molecular target: Aurora kinase B (Homo sapiens, UniProt Q96GD4); assay: Inhibition of aurora-B in human HT-29 cells assessed as phosphorylation of histone H3 at Ser10; assay type: cell-based
[19] = test system: Mus musculus; assay: Inhibition of MET autophosphorylation at Y1234/1235 in human MKN45 cells xenografted in mouse at 100 mg/kg, po after 24 hrs; assay type: functional; conditions: MKN-45, 24 h
[20] = test system: Mus musculus; assay: Toxicity in human U87MG cells xenografted nu/nu CD1 mouse model assessed as body weigh loss at 100 mg/kg, po qd for 14 days; assay type: organism-based, U-87MG ATCC; parameters: dose 100 mg/kg, route oral; conditions: in vivo, 336 h
[21] = test system: Salmonella typhimurium; assay: Mutagenic activity in Salmonella typhimurium TA98 by Ames test in absence of liver S9 fraction; assay type: toxicity, organism-based; conditions: salmonella enterica subsp. enterica serovar typhimurium
[22] = test system: Mus musculus; assay: Inhibition of cMET autophosphorylation at Y1234/1235 in human MKN45 cells xenografted in nu/nu CD1 mouse at 100 mg/kg, po qd for 14 days measured after 24 hrs of last dose; assay type: functional; conditions: MKN-45
[23] = test system: Salmonella typhimurium; assay: Mutagenic activity in Salmonella typhimurium TA98 by Ames test in presence of liver S9 fraction; assay type: toxicity, organism-based; conditions: salmonella enterica subsp. enterica serovar typhimurium

IC50 [1]: 42 nM
IC50 [3]: 25 nM
IC50 [6]: 40 nM
solubility [8]: > 100 µM
Vd [14]: 3.8 L/kg
IC50 [16]: 500 nM
half-life [17]: 120 min
IC50 [18]: 1000 nM
Compound: C[C@@H](Oc1c(N)ncc2c(C3=CCN(C(N)=O)CC3)coc12)c1c(Cl)ccc(F)c1Cl
Activity [2]: 64%
Activity [4]: 0%
Activity [5]: 0%
inhibition in vivo at 50 mg/kg [7]: 58%
inhibition in vivo at 100 mg/kg [9]: 79%
Activity [10]: Non-toxic
Activity [11]: 0%
Activity [12]: 5%
Activity [13]: 0%
Activity [15]: 0%
inhibition in vivo at 100 mg/kg [19]: 45%
Activity [20]: 0%
Activity [21]: Non-toxic
inhibition in vivo at 100 mg/kg [22]: > 90%
Activity [23]: Non-toxic
